In patent publication US9526785B2, “Pharmaceuticals for oral delivery” (Enteris BioPharma, Inc., priority 2013, dated 2016):
Read-outs that look alike come from different tables or passages of the source.

Assay: Tigecycline plasma PK and % F after intraduodenal (ID) injection in anesthetized rats
Format: in vivo, Sprague-Dawley Rats
Details: for AUC(0-t) / Tmax / bioavailability / Cmax: female, Sprague-Dawley, rat, plasma; for bioavailability: read-out: % F, mean
Protocol: Animals weighed approximately 250 g at the time of testing. Rats were fasted overnight (with water available), prior to dosing.
Intravenous (IV) doses were administered as a bolus injection into the left carotid […] at a dose volume of 1.6 mL/kg. Intraduodenal doses were administered as bolus injections into the duodenum at a dose volume of 1.2 mL/kg.
An additional study was conducted exploring the effect of formulation pH at constant CA and LLC concentrations (RA867).
Female rats were maintained in groups of 3 per polycarbonate (or equivalent) shoebox cage with fresh wood chip bedding at 20-22° C. under a 12 hour on/off light:dark cycle. […] After the rats went limp they were injected intraperitoneally (IP) with 0.1 mL ketamine/xylazine. The anesthetic state was maintained by IP injection of ketamine/xylazine on an as needed basis. Animal weights were determined post-anesthesia induction.
An indwelling catheter for blood sampling was inserted into the right carotid artery by exposing the trachea with Mayo scissors, clamping the bottom of the […] and tying off the top with surgical suture. The area between was nicked with small sharp scissors and Intramedic polyethylene tubing was inserted into the nicked area. The artery with the tubing was sealed with suture to prevent leakage. A 23-gauge Intramedic Luer Stub Adapter was inserted into the cannula and attached to a 3 way valve which was connected to a 3 cc syringe filled with 0.9% normal saline and a 1 cc syringe filled with 5 U/mL sodium heparin for blood sampling.
An intraduodenal injection was utilized to mimic oral delivery of an enterically coated capsule or tablet formulation. […] Mayo scissors were used to expose the duodenum and the site of administration was identified by measuring 5 cm from the junction of the stomach and the duodenum towards the jejunum. The measured site was identified by inserting a small piece of surgical suture underneath the site for injection. After the formulation was injected, the abdominal cavity was closed with surgical clips.
Blood samples were collected in tubes containing 20 μL 180 mM EDTA. The tubes were maintained on ice and then centrifuged at approximately 3000 rpm at 4° C. for 5 minutes. Plasma was harvested immediately after centrifugation of the samples and stored at −20° C. pending analysis.
Minocycline (VWR international) was used as an internal standard. Sample processing/clean-up of plasma samples was carried out offline by protein precipitation with acidified acetonitrile.
The HPLC system consisted of Shimadzu SIL-HTc HPLC system equipped with dual Shimadzu LC-10ADvp isopumps, a Shimadzu CTO-10ASvp column temperature controller and a Shimadzu SPD-10Avp variable wavelength detector. […] Mobile phase A consisted of 23 mM phosphate buffer pH 2.5 with 6 mM 1-octanesulfonic acid, while mobile phase B consisting of pure acetonitrile. […] The mobile phase flow rate was 1.2 mL/min. Detection was performed using the SPD-10Avp variable wavelength detector set at 350 nm, with a sensitivity of 0.001 aufs.
The samples were then centrifuged under refrigeration at 13 k rpm for 30 minutes. The supernatant was taken and the liquid was removed to dryness in a turbovap. The samples were then reconstituted in 55 μL 0.1M phosphate buffer, pH 3.8. Samples were maintained at 10° C. while on the autoinjector during sequence. The injection volume was 50 μL. The unknown concentration in rat plasma samples was determined by interpolation of the peak area ratios of analyte:internal standard versus the ratio of their nominal concentrations into the regression line obtained from calibration standards spiked in pooled rat plasma. No regression weighting was used for the calculations. […] The calibration curve covered the range of 0.05 μg/mL to 5.0 μg/mL.

[1] = ID, 400 mM CA (pH 3.5), 26 mM LLC, 4.8 mg/kg (RA851), parent Tigecycline peak only, 4.8 mg/kg
[2] = ID, 400 mM CA (pH 3.5), 26 mM LLC, 9.0 mg/kg (RA853), parent Tigecycline peak only, 9 mg/kg
[3] = 4.6 mg/kg, RA861, ID, 26 mM LLC alone, mean dose 4.6 mg/kg
[4] = 4.6 mg/kg, RA861, ID, 400 mM CA/26 mM LLC, mean dose 4.6 mg/kg
[5] = 4.8 mg/kg, ID, PBS, 4.8 mg/kg (RA851)
[6] = 4.8 mg/kg, RA861, ID, 400 mM CA alone, mean dose 4.8 mg/kg
[7] = 4.8 mg/kg, pH 3.5, ID, 100 mM CA (pH 3.5), 26 mM LLC, 4.8 mg/kg (RA851)
[8] = 4.8 mg/kg, pH 3.5, ID, 400 mM CA (pH 3.5), 26 mM LLC, 4.8 mg/kg (RA851), parent Tigecycline peak only
[9] = 4.8 mg/kg, pH 3.5, RA867, ID, 400 mM CA/26 mM LLC pH 3.5, 4.8 mg/kg
[10] = 4.8 mg/kg, pH 6, RA867, ID, 400 mM CA/26 mM LLC pH 6.0, 4.8 mg/kg
[11] = 9 mg/kg, ID, PBS, 9.0 mg/kg (RA853), without animal RA853-6
[12] = 9 mg/kg, pH 3.5, ID, 100 mM CA (pH 3.5), 26 mM LLC, 9.0 mg/kg (RA853)
[13] = 9 mg/kg, pH 3.5, ID, 400 mM CA (pH 3.5), 26 mM LLC, 9.0 mg/kg (RA853), parent Tigecycline peak only

SMILES: CN(C)c1cc(NC(=O)CNC(C)(C)C)c(O)c2c1C[C@H]1C[C@H]3[C@H](N(C)C)C(O)=C(C(N)=O)C(=O)[C@@]3(O)C(O)=C1C2=O [Tigecycline]
- increase of tigecycline plasma concentrations (ID, 26 mM LLC and 100 mM citrate pH 3.5, versus PBS): 7-9 x
- Cmax, Mean (ID, 100 mM CA (pH 3.5), 26 mM LLC, 4.8 mg/kg (RA851), 4.8 mg/kg): 714 ng/mL
- % F, Mean (ID, 100 mM CA (pH 3.5), 26 mM LLC, 4.8 mg/kg (RA851), relative to 0.64 mg/kg IV): 10.85%
- Tmax, Mean (ID, 100 mM CA (pH 3.5), 26 mM LLC, 9.0 mg/kg (RA853), 9 mg/kg): 16.667 min
- % F, Mean (ID, 100 mM CA (pH 3.5), 26 mM LLC, 9.0 mg/kg (RA853), relative to 12 mg/kg IV): 11.36%
- increase of mean % F (ID, 100 mM CA pH 3.5, 26 mM LLC, versus PBS): 4-7 fold
- Cmax, Mean [1]: 792 ng/mL
- Tmax, Mean [1]: 16.7 min
- AUC(0-t), Mean [2]: 137.6 µg·min/mL
- Cmax, Mean [2]: 2492 ng/mL
- AUC(0-t), Mean (ID, PBS, 9.0 mg/kg (RA853), without animal RA853-6, 9 mg/kg): 15.7 µg·min/mL
- % F, Mean (ID, PBS, 9.0 mg/kg (RA853), without animal RA853-6, relative to 12 mg/kg IV): 2.76%
- AUC(0-t) [3]: 68 ng·h/mL
- Tmax [3]: 18 min
- bioavailability [3]: 1%
- Cmax (4.6 mg/kg, RA861, ID, 26 mM LLC alone, mean dose 4.6 mg/kg, read-out: Cmax, mean): 64.1 ng/mL
- AUC(0-t) [4]: 139 ng·h/mL
- Tmax [4]: 10 min
- bioavailability [4]: 2.1%
- Cmax (4.6 mg/kg, RA861, ID, 400 mM CA/26 mM LLC, mean dose 4.6 mg/kg, read-out: Cmax, mean): 30.6 ng/mL
- AUC(0-t) [5]: 116 ng·h/mL
- Tmax [5]: 90 min
- Cmax (4.8 mg/kg, ID, PBS, 4.8 mg/kg (RA851), read-out: Cmax, Mean): 100 ng/mL
- AUC(0-t) [6]: 17.5 ng·h/mL
- Tmax [6]: 20 min
- bioavailability [6]: 0.3%
- Cmax (4.8 mg/kg, RA861, ID, 400 mM CA alone, mean dose 4.8 mg/kg, read-out: Cmax, mean): 11.7 ng/mL
- AUC(0-t) [7]: 823 ng·h/mL
- Tmax [7]: 20 min
- Cmax (4.8 mg/kg, pH 3.5, ID, 100 mM CA (pH 3.5), 26 mM LLC, 4.8 mg/kg (RA851), read-out: Cmax, Mean): 710 ng/mL
- AUC(0-t) [8]: 1430 ng·h/mL
- Tmax [8]: 17 min
- Cmax (4.8 mg/kg, pH 3.5, ID, 400 mM CA (pH 3.5), 26 mM LLC, 4.8 mg/kg (RA851), parent Tigecycline peak only, read-out: Cmax, Mean): 790 ng/mL
- AUC(0-t) [9]: 537 ng·h/mL
- Tmax [9]: 12 min
- bioavailability [9]: 7.7%
- Cmax (4.8 mg/kg, pH 3.5, RA867, ID, 400 mM CA/26 mM LLC pH 3.5, 4.8 mg/kg, read-out: Cmax, mean): 488 ng/mL
- AUC(0-t) [10]: 385 ng·h/mL
- Tmax [10]: 43 min
- bioavailability [10]: 5.5%
- Cmax (4.8 mg/kg, pH 6, RA867, ID, 400 mM CA/26 mM LLC pH 6.0, 4.8 mg/kg, read-out: Cmax, mean): 278 ng/mL
- AUC(0-t) [11]: 262 ng·h/mL
- Tmax [11]: 30 min
- Cmax (9 mg/kg, ID, PBS, 9.0 mg/kg (RA853), without animal RA853-6, read-out: Cmax, Mean): 220 ng/mL
- AUC(0-t) [12]: 1280 ng·h/mL
- Tmax [12]: 17 min
- Cmax (9 mg/kg, pH 3.5, ID, 100 mM CA (pH 3.5), 26 mM LLC, 9.0 mg/kg (RA853), read-out: Cmax, Mean): 2060 ng/mL
- AUC(0-t) [13]: 2300 ng·h/mL
- Tmax [13]: 10 min
- Cmax (9 mg/kg, pH 3.5, ID, 400 mM CA (pH 3.5), 26 mM LLC, 9.0 mg/kg (RA853), parent Tigecycline peak only, read-out: Cmax, Mean): 2490 ng/mL
- AUC(0-t) ([…], RA869, ID, 26 mM LLC only): 91.7 ng·h/mL
- Tmax ([…], RA869, ID, 26 mM LLC only): 10 min
- bioavailability ([…], RA869, ID, 26 mM LLC only, […]): 8.9%
